Reference: patent publication US4190575A, “Polypeptides related to somatostatin” (American Home Products Corporation, priority 1977, dated 1980)
Like-named read-outs stand apart in the source and are kept apart here. Bridge positions count the residues as written; N and C are the ends. Square brackets hold non-standard residues; d marks the D form. Peptide text beside a SMILES is read from it.

Key:
Assay type in all cases: in vivo
[1] = test system: glucagon; assay: Arginine-stimulated glucagon in Nembutal-treated rats, radioimmunoassay; settings: for Glucagon: albino male rats, *p<0.01
Experimental: (§1) The biological activity of the peptides of Examples 2 and 4 were determined by the following procedure:
(§2) Albino male rats are administered Nembutal intraperitoneally at a dose of 50 milligrams per kilogram. Fifteen minutes later a subcutaneous injection of the test compound of physiological saline is administered. Ten minutes later 0.5 milliliters of arginine (300 milligrams per milliliter, pH 7.2) is injected into the heart. Five minutes after receipt of the arginine the rats are decapitated and blood is collected into trasylol-EDTA. An appropriate aliquot is assayed for growth hormone (GH), insulin, and glucagon by radioimmunoassay.

[2] = test system: insulin; assay: Arginine-stimulated insulin in Nembutal-treated rats, radioimmunoassay; parameters: effect on insulin levels: dose or concentration left out as unconfirmed; settings: for Insulin: albino male rats
Experimental: as §1, §2

[3] = test system: growth hormone (GH); assay: Arginine-stimulated growth hormone (GH) in Nembutal-treated rats, radioimmunoassay; parameters: GH: reference not given here; settings: for GH: albino male rats, *p<0.01
Experimental: as §1, §2

[4] = test system: GH secretion; assay: Duration of effect on GH secretion in rats treated with Nembutal; parameters: duration of significant inhibition of GH: dose or concentration left out as unconfirmed
Experimental: The peptides of Examples 2 and 4 were also tested for duration of their effect on GH secretion in rats treated with Nembutal.

[5] = dose 200 ug/kg subcutaneous, blood 15 min after compound, 5 min after arginine
[6] = dose 200 ug/kg subcutaneous, blood 15 min after compound, 5 min after arginine, *p<0.01

Compound	Glucagon ([1]; dose 40 ug/kg subcutaneous) [pg/mL]	Glucagon [1, 5] [pg/mL]	reducing glucagon ([1]; dose of 40 mg/kg)	Insulin ([2]; dose 40 ug/kg subcutaneous) [μU/ml.]	Insulin [2, 6] [μU/ml.]	effect on insulin levels ([2]; dose of 40)	GH ([3]; dose 40 ug/kg subcutaneous) [ng/mL]	GH [3, 5] [ng/mL]	reducing growth hormone ([3]; dose of 40 mg/kg)	reducing glucagon [1]	Glucagon ([1]; dose 50 ug/kg subcutaneous) [pg/mL]	inhibition of GH at 2 and 4 hours ([4]; at 2 and 4 hours)	Insulin ([2]; dose 50 ug/kg subcutaneous) [μU/ml.]	effect on insulin levels ([2]; dose of 50)	GH ([3]; dose 50 ug/kg subcutaneous) [ng/mL]	reducing growth hormone ([3]; dose of 50 mg/kg)	duration of significant inhibition of GH ([4]; (S.C.))
C[C@@H](O)[C@@H]1NC(=O)[C@H](Cc2ccccc2)NC(=O)[C@H]([C@@H](C)O)NC(=O)[C@H](CCCCN)NC(=O)[C@@H](Cc2c[nH]c3ccccc23)NC(=O)[C@H](Cc2ccccc2)NC(=O)[C@H](Cc2ccccc2)NC(=O)[C@H](CCC(=O)O)NC(=O)[C@H](CCCNC(=N)N)NC(=O)[C@@H](N)CSSC[C@@H](C(=O)O)NC(=O)[C@H](CO)NC1=O [Example 2, L-Cysteinyl-L-arginyl-L-glutamyl-L-phenylalanyl-L-phenylalanyl-D-tryptophyl-L-lysyl-L-threonyl-L-phenylalanyl-L-threonyl-L-seryl-L-cysteine cyclic (1-12) disulfide] (H-CREFF[dW]KTFTSC-OH; disulfide 1-12)	12 ± 2	1.5 ± 1	effective agents for reducing growth hormone and glucagon	158 ± 57	115 ± 16	without materially affecting insulin levels	28 ± 5	42 ± 6	effective agents for reducing growth hormone	–	–	–	–	–	–	–	–
C[C@@H](O)[C@@H]1NC(=O)[C@H](Cc2ccccc2)NC(=O)[C@H]([C@@H](C)O)NC(=O)[C@H](CCCCN)NC(=O)[C@@H](Cc2c[nH]c3ccccc23)NC(=O)[C@H](Cc2ccccc2)NC(=O)[C@H](Cc2ccccc2)NC(=O)[C@H](CCC(=O)O)NC(=O)[C@H](Cc2c[nH]cn2)NC(=O)[C@@H](N)CSSC[C@@H](C(=O)O)NC(=O)[C@H](CO)NC1=O [Example 4, L-Cysteinyl-L-histidyl-L-glutamyl-L-phenylalanyl-L-phenylalanyl-D-tryptophyl-L-lysyl-L-threonyl-L-phenylalanyl-L-threonyl-L-seryl-L-cysteine cyclic (1-12) disulfide] (H-CHEFF[dW]KTFTSC-OH; disulfide 1-12)	–	4 ± 2	–	–	205 ± 36	–	–	107 ± 29	–	effective agents for reducing growth hormone and glucagon	10 ± 4	no significant inhibition of GH	322 ± 40	without materially affecting insulin levels	84 ± 17	effective agents for reducing growth hormone	–
tert-Butyloxycarbonyl-S-p-methoxybenzyl-L-cysteinyl-N^gn -tosyl-L-arginyl-γ-benzyl-L-glutamyl-L-phenylalanyl-L-phenylalanyl-D-tryptophyl-N^ε -2-chloro-benzyloxycarbonyl-L-lysyl-O-benzyl-L-threonyl-L-phenylalanyl-O-benzyl-L-threonyl-O-benzyl-L-seryl-S-p-methoxybenzyl-L-cysteine hydroxymethyl-polystyrene ester [Example 1]	–	–	–	–	–	–	–	–	–	–	–	–	–	–	–	–	at least 4 hours
